Source: article PMC12298237 (Marine Drugs, 2025)
Where a SMILES comes first, the peptide text is derived from it. [ ]: non-standard residue; d: D form. The star is where a group is joined. Leu(ol) = CC(C)C[C@H](N)CO; dIva = CC[C@@](C)(N)C(=O)O; Octanoyl = CCCCCCCC(=O)*

Columns and labels:
Format in all cases: cell-based, human
HT-29 cells [1] = assay: Cell cycle analysis by flow cytometry (PI); settings: HT-29, 24 h of exposure, in words
Method: (§1) Following treatment, cells were collected, washed, and fixed in 75% pre-chilled ethanol at −20 °C for 24 h. After fixation, cells were centrifuged, washed twice with cold PBS, and stained with propidium iodide (PI, 0.1 mg/mL) in the presence of RNase A (0.1 mg/mL) at 37 °C for 30 min. Cell cycle distribution was analyzed by flow cytometry (LSRFortessa, BD, Canton, MA, USA). To enhance the clarity of the results, cell populations were selectively gated using the ModFit LT 5.0 software.

DLD-1 cells [2] = assay: Cell cycle analysis by flow cytometry (PI); settings: DLD-1, 24 h of exposure, in words
Method: as §1

HT-29 cells [3] = assay: Colony formation assay; settings: HT-29, 9 or 18 μM, two weeks, crystal violet, vs untreated control, n = 3
Method: (§2) For colony formation assays, DLD-1 and HT-29 cells were seeded into 6-well plates at a density of 800 cells per well. […] The culture medium was refreshed every four days. After two weeks of continuous culture, colonies were fixed with 4% paraformaldehyde for 15 min and subsequently stained with crystal violet solution (Yuanye, Shanghai, China) for 20 min. Colony formation was quantified using ImageJ 1.54g software.

DLD-1 cells [4] = assay: Colony formation assay; settings: DLD-1, 9 or 18 μM, two weeks, crystal violet, vs untreated control, n = 3
Method: as §2

HT-29 cells [5] = assay: Calcein-AM/PI staining assay; settings: HT-29, 18 μM, 0, 6, 12 and 18 h, fluorescence microscopy
Method: (§3) For the Calcein-AM/PI staining assay, DLD-1 and HT-29 cells were seeded in 24-well plates at 5 × 10^4 cells per well. […] After incubation for 0, 6, 12, and 18 h, cells were stained by using the calcein AM (MedChem Express (Monmouth Junction, NJ, USA), 5 μM) and propidium iodide (MedChem Express, 50 μg/mL). The cells were incubated in the dark at 37 °C for 30 min, followed by imaging with an inverted fluorescence microscope.

DLD-1 cells [6] = assay: Calcein-AM/PI staining assay; settings: DLD-1, 18 μM, 0, 6, 12 and 18 h, fluorescence microscopy
Method: as §3

[7] = test system: phosphorylated ERK1/2 (p-ERK) in DLD-1 cells; assay: Western blot of phosphorylated ERK1/2; settings: DLD-1, 9 and 18 μM, 24 h
Method: (§4) Western blotting was performed as previously described. […] Cells were washed twice with PBS and lysed in RIPA buffer (Beyotime Biotechnology, Jiangsu, China) on ice for 30 min. Lysates were centrifuged at 12,000 rpm for 20 min at 4 °C, and the supernatant containing total protein was collected. Equal amounts of protein were separated by SDS-PAGE and transferred onto polyvinylidene fluoride (PVDF) membranes. Membranes were blocked with 5% non-fat milk at room temperature for 1 h, followed by incubation with the appropriate primary and secondary antibodies. Protein bands were visualized using the Omni-ECL Femto Light Chemiluminescence Kit (Epizyme, Shanghai, China) and imaged with the Amersham Imager 680 (Cytiva, Marlborough, MA, USA).

[8] = test system: phosphorylated ERK1/2 (p-ERK) in HT-29 cells; assay: Western blot of phosphorylated ERK1/2; settings: HT-29, 9 and 18 μM, 24 h
Method: as §4

## CCCCCCCC(=O)NCC(=O)N[C@@H](Cc1ccccc1)C(=O)N[C@@H](CC(C)C)C(=O)N[C@](C)(CC)C(=O)N[C@@H](C)C(=O)N[C@@H](CC(C)C)C(=O)N[C@H](CO)CC(C)C [Compound 1, lipotrichaibol A] (Octanoyl-GFL[dIva]AL[Leu(ol)])
HT-29 cells [1]
  proportion of cells in the G0/G1 phase: significant increase
DLD-1 cells [2]
  proportion of cells in the G0/G1 phase: significant increase
HT-29 cells [3]
  number of colony-forming cells: markedly reduced
DLD-1 cells [4]
  number of colony-forming cells: markedly reduced
HT-29 cells [5]
  cell proliferation and dead cells (Calcein-AM/PI staining): pronounced reduction in cell proliferation
DLD-1 cells [6]
  cell proliferation and dead cells (Calcein-AM/PI staining): pronounced reduction in cell proliferation
[7]
  levels of phosphorylated ERK1/2 (p-ERK): significantly reduced
[8]
  levels of phosphorylated ERK1/2 (p-ERK): significantly reduced
